Experimental data published in the supplement of paper PMC13380429.

Columns and labels:
[1] = system: A549-ACE2 infected with SARS-CoV-2; assay: cell count relative to DMSO; higher = less toxic; conditions: 24 h
[2] = system: Caco-2; assay: cell viability relative to DMSO; higher = less toxic; conditions: 72 h
[3] = system: HepG2; assay: as above; conditions: 72 h
[4] = system: U2OS; assay: as above; conditions: 72 h
[5] = system: Vero E6; assay: as above; conditions: 72 h
[6] = system: A549-ACE2 infected with SARS-CoV-2; assay: SARS-CoV-2 infection rate relative to DMSO; higher = more infection; conditions: 24 h
[7] = system: A549-ACE2; assay: phospholipidosis EC50; higher = less potent phospholipidosis inducer
[8] = system: A549-ACE2; assay: drug-induced phospholipidosis relative to tamoxifen; higher = more phospholipidosis
[9] = system: A549-ACE2 infected with SARS-CoV-2; assay: morphology score (similarity to uninfected cells); higher = more like uninfected cells; conditions: 24 h
[10] = system: Caco-2; assay: relative viability EC50 (midpoint between 100% and the lowest measured viability); higher = less toxic; conditions: 72 h
[11] = system: HepG2; assay: as above; conditions: 72 h
[12] = system: U2OS; assay: as above; conditions: 72 h
[13] = system: Vero E6; assay: as above; conditions: 72 h
[14] = system: Caco-2; assay: drug sensitivity score (DSS) for viability; higher = more toxic; extreme values may be limits of the assay; conditions: 72 h
[15] = system: HepG2; assay: as above; conditions: 72 h
[16] = system: U2OS; assay: as above; conditions: 72 h
[17] = system: Vero E6; assay: as above; conditions: 72 h

O=C(OC(C(F)(F)F)C(F)(F)F)N1CCN(Cc2cccc(Oc3ccccc3)c2)CC1 [JW-642]
Conditions	SARS-CoV-2 infection rate [%]	cell count [%]	cell viability [%]	morphology score	phospholipidosis EC50 [nM]
[1], 0.3 µM	–	103	–	–	–
[1], 3 µM	–	111	–	–	–
[1], 10 µM	–	105	–	–	–
[1], 30 µM	–	105	–	–	–
[2], 1 nM	–	–	98.3	–	–
[2], 10 nM	–	–	106	–	–
[2], 100 nM	–	–	99.4	–	–
[2], 1000 nM	–	–	100	–	–
[2], 10000 nM	–	–	92.4	–	–
[3], 1 nM	–	–	100	–	–
[3], 10 nM	–	–	116	–	–
[3], 100 nM	–	–	87.7	–	–
[3], 1000 nM	–	–	109	–	–
[3], 10000 nM	–	–	101	–	–
[4], 1 nM	–	–	101	–	–
[4], 10 nM	–	–	98.1	–	–
[4], 100 nM	–	–	102	–	–
[4], 1000 nM	–	–	95.7	–	–
[4], 10000 nM	–	–	97.6	–	–
[5], 1 nM	–	–	93.1	–	–
[5], 10 nM	–	–	106	–	–
[5], 100 nM	–	–	96.3	–	–
[5], 1000 nM	–	–	90.5	–	–
[5], 10000 nM	–	–	102	–	–
[6], 0.3 µM	100	–	–	–	–
[6], 3 µM	88	–	–	–	–
[6], 10 µM	99	–	–	–	–
[6], 30 µM	90	–	–	–	–
[7], 24 h	–	–	–	–	722
[7], 48 h	–	–	–	–	1170
[7], 72 h	–	–	–	–	1220
[9], 0.3 µM	–	–	–	-0.02	–
[9], 3 µM	–	–	–	0.31	–
[9], 10 µM	–	–	–	-0.04	–
[9], 30 µM	–	–	–	0.29	–

drug-induced phospholipidosis [%], [8]
Conditions	0.3 µM	0.833333 µM	3.33333 µM	6.66667 µM	10 µM	30 µM
24 h	6.56	21.9	39.6	46.5	46.2	54.6
48 h	5.07	23.9	54.4	65.2	57.8	68.1
72 h	4.87	23.8	62.1	70.4	64.8	73.8

Conditions	drug sensitivity score	relative viability EC50 [nM]
[10]	–	> 10000
[11]	–	> 10000
[12]	–	> 10000
[13]	–	> 10000
[14]	0	–
[15]	0	–
[16]	0	–
[17]	0	–
